Laboratory results: patent US7109192B2, “Substituted imidazo-pyridinones and imidazo-pyridazinones, the preparation thereof and their use as pharmaceutical compositions” (Boehringer Ingelheim Pharma GmbH & Co KG, priority 2002, dated 2006)
pIC50: −log10 of the molar value. Where a name gives a salt, the structure may show the parent alone.

test system: rats; experiment: Tolerability in rats after oral administration; format: in vivo, rat; conditions: 10 mg/kg

For `CC#CCn1c(N2CCCC(N)C2)nc2cnn(Cc3cccc4ccccc34)c(=O)c21` (stereo not shown) [Example 2, 2-(3-amino-piperidin-1-yl)-3-(but-2-ynyl)-5-(naphthalen-1-ylmethyl)-3,5-dihydro-imidazo[4,5-d]pyridazin-4-one], the “changes in the animals' behaviour” value was “no changes in the animals' behaviour could be detected”.

target: T1, DPP-IV (Homo sapiens, UniProt P27487); experiment: DPP-IV inhibition assay with Caco-2 cell extract, AFC substrate, fluorescence; format: biochemical; conditions: extract of human colon carcinoma cell line Caco-2 as DPP IV source; 100 μM AFC substrate; 60 minutes, ambient temperature
T1 construct: an extract of human colon carcinoma cell line Caco-2 is used as the DPP IV source; endogenous in cells; host or cells: Caco-2 (human colon carcinoma), differentiated to induce DPP-IV expression; Nonidet-P40 solubilised extract
Experimental: The cell extract was obtained from cells solubilised in a buffer (10 mM Tris HCl, 0.15 M NaCl, 0.04 t.i.u. aprotinin, 0.5% Nonidet-P40, pH 8.0) by centrifuging at 35,000 g for 30 minutes at 4° C. (to remove cell debris).
The DPP-IV assay was carried out as follows:
50 μl substrate solution (AFC; AFC is amido-4-trifluoromethylcoumarin), final concentration 100 μM, were placed in black microtitre plates. 20 μl of assay buffer (final concentrations 50 mM Tris HCl pH 7.8, 50 mM NaCl, 1% DMSO) was pipetted in. The reaction was started by adding 30 μl of solubilised Caco-2 protein (final concentration 0.14 μg of protein per well). The test substances to be investigated were typically added prediluted in 20 μl, and the volume of assay buffer was then reduced accordingly. The reaction was carried out at ambient temperature, incubating for 60 minutes. […] Blank readings (corresponding to 0% activity) were obtained in mixtures without any Caco-2 protein (volume replaced by assay buffer), control values (corresponding to 100% activity) were obtained in mixtures with no substance added.

T1 sequence (P27487 whole entry): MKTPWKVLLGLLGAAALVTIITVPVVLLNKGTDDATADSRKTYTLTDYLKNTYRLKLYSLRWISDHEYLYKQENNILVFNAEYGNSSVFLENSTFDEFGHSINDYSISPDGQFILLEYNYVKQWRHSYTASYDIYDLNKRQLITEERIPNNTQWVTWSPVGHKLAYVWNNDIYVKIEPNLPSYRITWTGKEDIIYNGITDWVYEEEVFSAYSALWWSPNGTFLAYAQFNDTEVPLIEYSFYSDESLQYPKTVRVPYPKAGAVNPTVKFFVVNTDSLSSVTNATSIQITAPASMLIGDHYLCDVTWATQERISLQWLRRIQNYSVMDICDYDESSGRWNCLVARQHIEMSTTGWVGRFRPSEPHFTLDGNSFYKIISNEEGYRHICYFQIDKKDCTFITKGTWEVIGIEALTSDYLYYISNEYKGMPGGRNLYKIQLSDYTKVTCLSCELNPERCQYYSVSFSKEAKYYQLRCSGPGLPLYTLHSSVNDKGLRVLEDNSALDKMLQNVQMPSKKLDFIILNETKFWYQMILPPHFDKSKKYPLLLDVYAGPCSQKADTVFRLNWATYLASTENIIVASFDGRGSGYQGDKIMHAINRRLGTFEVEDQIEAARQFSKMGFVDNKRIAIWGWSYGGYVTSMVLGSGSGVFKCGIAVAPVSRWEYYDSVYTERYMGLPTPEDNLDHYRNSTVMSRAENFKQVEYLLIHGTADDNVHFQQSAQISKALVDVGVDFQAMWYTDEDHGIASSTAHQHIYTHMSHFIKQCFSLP

Going from `CC#CCn1c(N2CCC[C@@H](N)C2)nc2cnn(Cc3nc4cc(C(F)(F)F)ccc4s3)c(=O)c21` [Example 195, 2-((R)-3-amino-piperidin-1-yl)-3-(but-2-ynyl)-5-(5-trifluoromethylbenzothiazol-2-ylmethyl)-3,5-dihydro-imidazo[4,5-d]pyridazin-4-one hydrochloride] to `CC#CCn1c(N2CCC[C@@H](N)C2)nc2cnn(Cc3ccc4nonc4c3)c(=O)c21` [Example 202, 2-((R)-3-amino-piperidin-1-yl)-3-(but-2-ynyl)-5-(benzo[1,2,5]oxadiazol-5-ylmethyl)-3,5-dihydro-imidazo[4,5-d]pyridazin-4-one], the pIC50 rises from 7.77 to 8.01 (0.24 log units). The second is the more potent here.

`CC#CCn1c(N2CCC[C@@H](N)C2)nc2cnn(Cc3cn(C)c(=O)c4ccccc34)c(=O)c21` [Example 217, 2-((R)-3-amino-piperidin-1-yl)-3-(but-2-ynyl)-5-(2-methyl-2H-isoquinolin-1-on-4-ylmethyl)-3,5-dihydro-imidazo[4,5-d]pyridazin-4-one] and `CC#CCn1c(N2CCC[C@@H](N)C2)nc2cnn(Cc3ccc(F)c4ccccc34)c(=O)c21` [Example 191, 2-((R)-3-amino-piperidin-1-yl)-3-(but-2-ynyl)-5-(4-fluoronaphthalen-1-ylmethyl)-3,5-dihydro-imidazo[4,5-d]pyridazin-4-one hydrochloride] are within 0.2 log units of each other in pIC50: 8.00 for the first, 7.85 for the second.

First: Cc1cc2ccccc2c(Cn2ncc3nc(N4CCC[C@@H](N)C4)n(Cc4ccccc4Cl)c3c2=O)n1 [Example 205, 2-((R)-3-amino-piperidin-1-yl)-3-(2-chlorobenzyl)-5-(3-methyl-isoquinolin-1-ylmethyl)-3,5-dihydro-imidazo[4,5-d]pyridazin-4-one]
Second: CC#CCn1c(N2CCCC(N)C2)nc2cnn(Cc3ccc4nccnc4c3)c(=O)c21 (stereo not shown) [Example 182, 2-(3-amino-piperidin-1-yl)-3-(but-2-ynyl)-5-(quinoxalin-6-ylmethyl)-3,5-dihydro-imidazo[4,5-d]pyridazin-4-one]
The pIC50 of the first is 0.65 log units lower: 8.27 for the first, 8.92 for the second.
